This is an account of results in ChEMBL document CHEMBL1201862, “PubChem BioAssay data set” (2004).

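Growth conditions: 96-well plates. Treatment: test compound, 48 hours, 5 concentrations. Analysis: linear interpolation between bracketing concentrations; unreached endpoints set to highest concentration. GI50: concentration for 50% inhibition of growth.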 The source made the active and inactive calls. Rule as the data show it: active = GI50 up to about 1.1 µM and inactive = higher. Some results are limits rather than exact numbers.

Test systems include LOX IMVI; SF-268; CAKI-1; UO-31; IGROV-1; M14; HCC 2998; SK-OV-3; NCI-H460; HCT-116; U-251; OVCAR-8; SK-MEL-28; KM12; OVCAR-5; NCI-H522; NCI-H226; HT-29; OVCAR-4.
What all share (experiment): growth of human tumour cells (NCI), 48 h

Turning to `CCCCCCCCSC(SCCCCCCCC)=C1C(=O)N(c2ccccc2)N=C1C`, the GI50 in the assay on LOX IMVI was 17.7 µM (inactive); in the assay with SF-268 it was > 100 µM (inactive); with CAKI-1, 26.9 µM (inactive); in the assay with UO-31 it was 27.5 µM (inactive); with IGROV-1, 43.1 µM (inactive); with M14, 83 µM (inactive). Further, the GI50 is 71.3 µM (inactive) with HCC 2998; 77.3 µM (inactive) in the assay on SK-OV-3; 40.3 µM (inactive) in the assay with NCI-H460; 14.8 µM (inactive) in the assay on HCT-116; 17.5 µM (inactive) in the assay on U-251; 35.5 µM (inactive) with OVCAR-8. For the same molecule, the GI50 with SK-MEL-28 is > 100 µM (inactive); in the assay with KM12, 33.7 µM (inactive); in the assay on OVCAR-5, 80.4 µM (inactive); in the assay on NCI-H522, 20.3 µM (inactive); with NCI-H226, 64.4 µM (inactive); in the assay with HT-29 it was 45.8 µM (inactive).

In the case of `CC1(C)C2C=CC1C(=O)CC2` (stereo unspecified), the GI50 in the assay on LOX IMVI, in the assay on SF-268, with CAKI-1, with UO-31, in the assay on M14 and with HCC 2998 was > 100 µM (inactive) in each case. Also, the GI50 in the assay with NCI-H460, in the assay with HCT-116, in the assay on U-251, in the assay on OVCAR-8, in the assay with SK-MEL-28 and with KM12 was > 100 µM (inactive) each time. The GI50 in the assay with OVCAR-5, with NCI-H522, in the assay on NCI-H226, in the assay with OVCAR-4 and in the assay on HT-29 was > 100 µM (inactive) throughout.

Take `O=C1NC(O)c2cc3ccccc3cc2O1` (stereo unspecified): the GI50 was 46.6 µM (inactive) in the assay with LOX IMVI; 61.7 µM (inactive) in the assay on SF-268; > 100 µM (inactive) in the assay with UO-31; 69.5 µM (inactive) with IGROV-1; 38.6 µM (inactive) in the assay on M14; > 100 µM (inactive) in the assay on HCC 2998. The GI50 is > 100 µM (inactive) with SK-OV-3; > 100 µM (inactive) in the assay on NCI-H460; 20 µM (inactive) in the assay with HCT-116; 26.5 µM (inactive) in the assay on U-251; 39.2 µM (inactive) in the assay on OVCAR-8; 69.8 µM (inactive) in the assay with SK-MEL-28. Moreover, the GI50 in the assay with KM12 is > 100 µM (inactive); with OVCAR-5, > 100 µM (inactive); in the assay on NCI-H522, > 100 µM (inactive); with NCI-H226, > 100 µM (inactive); in the assay on OVCAR-4, 76 µM (inactive); in the assay with HT-29, > 100 µM (inactive).

In the case of `CCOC(=O)CNc1nnnn1C1OC(CO)C(O)C1O` (stereo unspecified), the GI50 in the assay on LOX IMVI, in the assay with SF-268, in the assay on CAKI-1, with UO-31, in the assay with IGROV-1 and in the assay on M14 was > 100 µM (inactive) throughout. Further, the GI50 in the assay with HCC 2998, in the assay with SK-OV-3, with NCI-H460, in the assay on HCT-116, in the assay with U-251 and in the assay on OVCAR-8 was > 100 µM (inactive) throughout. The GI50 in the assay with KM12, in the assay on OVCAR-5, with NCI-H522, in the assay on NCI-H226 and in the assay on HT-29 was > 100 µM (inactive) throughout.

For `COc1ccc2c(c1)CCN1CCCc3ccccc3C21` (stereo unspecified), the GI50 in the assay with LOX IMVI was 22.4 µM (inactive); in the assay on SF-268 it was 36 µM (inactive); with CAKI-1 it was 54.1 µM (inactive); in the assay on UO-31, 29.4 µM (inactive); in the assay with IGROV-1, 47.6 µM (inactive); in the assay on M14, 15.9 µM (inactive). In addition, the GI50 was 23 µM (inactive) in the assay on HCC 2998; 46.3 µM (inactive) with SK-OV-3; 30.9 µM (inactive) in the assay on HCT-116; 37.2 µM (inactive) with U-251; 91 µM (inactive) with OVCAR-8; 50.1 µM (inactive) with SK-MEL-28. Further, the GI50 in the assay with KM12 is 33.7 µM (inactive); in the assay with OVCAR-5, 42.9 µM (inactive); with NCI-H522, 34.4 µM (inactive); in the assay with NCI-H226 it was 28.1 µM (inactive); in the assay with OVCAR-4, > 100 µM (inactive); in the assay on HT-29, 28.2 µM (inactive).

On to `O=C(O/N=C1\CCCC\C1=C/c1ccccc1)c1ccc([N+](=O)[O-])cc1`, for which the GI50 in the assay with LOX IMVI is > 100 µM (inactive); in the assay on SF-268, > 100 µM (inactive); in the assay with CAKI-1, > 100 µM (inactive); in the assay on UO-31, 98.4 µM (inactive); with M14, > 100 µM (inactive); in the assay with HCC 2998, > 100 µM (inactive). Further, the GI50 was > 100 µM (inactive) in the assay with SK-OV-3; > 100 µM (inactive) with NCI-H460; > 100 µM (inactive) in the assay with HCT-116; 86.3 µM (inactive) with U-251; > 100 µM (inactive) with OVCAR-8; > 100 µM (inactive) with SK-MEL-28. Besides, the GI50 with OVCAR-5 was > 100 µM (inactive); in the assay with NCI-H522 it was 69.8 µM (inactive); in the assay with NCI-H226 it was > 100 µM (inactive); in the assay with OVCAR-4, 33.1 µM (inactive); in the assay with HT-29, > 100 µM (inactive).

`CCCCCCCCCCCCCCC(O)C1CCC(C(O)CCC(O)CCCCCC(O)CC2=CC(C)OC2=O)O1` (stereo unspecified): the GI50 with LOX IMVI was 1.18 µM (inactive); with SF-268, 0.832 µM (active); in the assay on CAKI-1, 8.13 µM (inactive); in the assay with UO-31, 0.0604 µM (active); with IGROV-1 it was 1.44 µM (inactive); with M14 it was 6.3 µM (inactive). For the same molecule, the GI50 in the assay with HCC 2998 is 2.51 µM (inactive); in the assay with SK-OV-3 it was 4.73 µM (inactive); in the assay with NCI-H460, 1.79 µM (inactive); in the assay with HCT-116, 1.36 µM (inactive); in the assay with U-251 it was 2.74 µM (inactive); in the assay with OVCAR-8, 2.07 µM (inactive). Moreover, the GI50 was 1.93 µM (inactive) in the assay with SK-MEL-28; 4.4 µM (inactive) in the assay with OVCAR-5; 1.14 µM (inactive) with NCI-H522; 1.09 µM (active) in the assay on NCI-H226; 0.013 µM (active) in the assay with OVCAR-4; 1.82 µM (inactive) with HT-29.

In the case of `COc1ccc(-c2cc(-c3ccco3)c(C#N)c(=O)[nH]2)cc1`, the GI50 with LOX IMVI was > 100 µM (inactive); in the assay on SF-268, 36.7 µM (inactive); in the assay on UO-31, > 100 µM (inactive); in the assay with IGROV-1 it was > 100 µM (inactive); with M14, > 100 µM (inactive); with HCC 2998 it was > 100 µM (inactive). For the same molecule, the GI50 in the assay on SK-OV-3 was 23.2 µM (inactive); with NCI-H460, 35.1 µM (inactive); with HCT-116, 40.3 µM (inactive); in the assay on U-251, 15.5 µM (inactive); with OVCAR-8, 36.8 µM (inactive); in the assay on SK-MEL-28, > 100 µM (inactive). Further, the GI50 in the assay on KM12 is > 100 µM (inactive); in the assay with OVCAR-5 it was > 100 µM (inactive); in the assay on NCI-H522, 20.3 µM (inactive); in the assay with NCI-H226, > 100 µM (inactive); in the assay with OVCAR-4, 29.2 µM (inactive); in the assay on HT-29, > 100 µM (inactive).
